Assay results published in ChEMBL document CHEMBL1138517, “Synthesis and structure-activity relationship of griseofulvin analogues as inhibitors of centrosomal clustering in cancer cells” (J Med Chem, 2009).

Experiment: Inhibition of centrosomal clustering in human SCC114 cells expressing GFPalpha-tubulin assessed as mitotic cells with multipolar spindles by fluorescence microscopy
Type: functional, cell-based

IC50 | SMILES
15 µM | COc1cc(OC)c2c(c1Cl)O[C@]1(C2=O)C(OCCc2ccccc2)=CC(=O)C[C@H]1C
6.6 µM | CCCOC1=CC(=O)C[C@@H](C)[C@]12Oc1c(Cl)c(OC)cc(OC)c1C2=O
0.9 µM | COc1cc(OC)c2c(c1Cl)O[C@]1(C2=O)C(OCc2ccccc2)=CC(=O)C[C@H]1C
6.6 µM | CCOC1=CC(=O)C[C@@H](C)[C@]12Oc1c(Cl)c(OC)cc(OC)c1C2=O
0.9 µM | COc1cc(OC)c2c(c1Cl)O[C@]1(C2=O)C(OCc2ccccc2)=C/C(=N\O)C[C@H]1C
> 100 µM | COc1cc(OC)c2c(c1Cl)O[C@@]1(C(=O)C=C(O)C[C@H]1C)C2=O
27 µM | COC1=C/C(=N\N(C)C)C[C@@H](C)[C@]12Oc1c(Cl)c(OC)cc(OC)c1C2=O
2.5 µM | CCCCOC1=CC(=O)C[C@@H](C)[C@]12Oc1c(Cl)c(OC)cc(OC)c1C2=O
> 100 µM | COc1cc(OC)c2c(c1Cl)O[C@]1(C2=O)C(=O)C(C)(C)C(=O)C[C@H]1C
2.9 µM | COc1cc(OC)c2c(c1Cl)O[C@]1(C2=O)C(OCc2ccc(-c3ccccc3)cc2)=CC(=O)C[C@H]1C
1.8 µM | COc1cc(OC)c2c(c1Cl)O[C@]1(C2=O)C(OCC2CC2)=CC(=O)C[C@H]1C
> 100 µM | COC1=C(I)C(=O)C[C@@H](C)[C@]12Oc1c(Cl)c(OC)cc(OC)c1C2=O
> 100 µM | COC1=C[C@@H](O)C[C@@H](C)[C@]12Oc1c(Cl)c(OC)cc(OC)c1C2=O
1.5 µM | COc1cc(OC)c2c(c1Cl)O[C@]1(C2=O)C(Oc2ccccc2)=CC(=O)C[C@H]1C
> 100 µM | COC1=CC(=O)C[C@@H](C)[C@]12Oc1c(Cl)c(OC)c(NCc3ccccc3)c(OC)c1C2=O

The remaining lines, values behind:

SMILES | IC50
COC1=CC(=O)C[C@@H](C)[C@]12Oc1c(Cl)c(OC)c([N+](=O)[O-])c(OC)c1C2=O | > 100 µM
COC1=CC(=O)C[C@@H](C)[C@]12Oc1c(Cl)c(OC)c(N)c(OC)c1C2=O | > 100 µM
CCCCCOC1=CC(=O)C[C@@H](C)[C@]12Oc1c(Cl)c(OC)cc(OC)c1C2=O | 2.8 µM
COC1=C/C(=N\O)C[C@@H](C)[C@]12Oc1c(Cl)c(OC)cc(OC)c1C2=O | 17 µM
COc1cc(OC)c2c(c1Cl)O[C@@]1(C2=O)[C@H](C)C[C@H](O)C[C@@H]1OC | > 100 µM
COC1=CC(=O)C[C@@H](C)[C@]12Oc1c(Cl)c(OC)cc(OCc3ccccc3)c1C2=O | > 100 µM
COc1cc(OC)c2c(c1Cl)O[C@]1(C2=O)C(OC(C)C)=CC(=O)C[C@H]1C | 6.8 µM
COC1=CC(=O)[C@@]2(Oc3c(Cl)c(OC)cc(OC)c3C2=O)[C@H](C)C1 [ISOGRISEOFULVIN] | > 100 µM
COC1=CC(=O)C[C@@H](C)[C@]12Oc1c(Cl)c(OC)cc(O)c1C2=O | > 100 µM
COc1cc(OC)c2c(c1Cl)O[C@]1(C2=O)C(OC2CCCC2)=CC(=O)C[C@H]1C | 1.3 µM
COc1cc(OC)c2c(c1Cl)O[C@]1(C2=O)C(SCc2ccccc2)=CC(=O)C[C@H]1C | 1.3 µM
COc1cc(OC)c2c(c1Cl)O[C@@]1(C(=O)C(Cc3ccccc3)=C(O)C[C@H]1C)C2=O | > 100 µM
COc1cc(OC)c2c(c1Cl)O[C@]1(C2=O)C(OCc2ccccc2)=C(I)C(=O)C[C@H]1C | > 100 µM
COc1cc(OC)c2c(c1Cl)O[C@]1(C2=O)C(OCC23CC4CC(CC(C4)C2)C3)=CC(=O)C[C@H]1C | 3.7 µM
CCCCCCOC1=CC(=O)C[C@@H](C)[C@]12Oc1c(Cl)c(OC)cc(OC)c1C2=O | 4 µM
COC1=CC(=O)C[C@@H](C)[C@]12Oc1c(Cl)c(OC)cc(OC)c1C2=O [GRISEOFULVIN] | 24 µM
CCCOC1=C(I)C(=O)C[C@@H](C)[C@]12Oc1c(Cl)c(OC)cc(OC)c1C2=O | 2 µM
CCOc1cc(OC)c(Cl)c2c1C(=O)[C@@]1(O2)C(OC)=CC(=O)C[C@H]1C | > 100 µM
COc1cc(OC)c2c(c1Cl)O[C@]1(C2=O)C(OCc2ccc(C)cc2)=CC(=O)C[C@H]1C | 0.9 µM
